Results on 3 sequences are retold here after patent US20070128589A1, “Substrates, sensors, and methods for assessing conditions in females” (priority 2005, published 2007).

Entries after “also recorded” stand apart in the source; their conditions may differ. No end group written: not given here.

Test [1] concerns unidentified protease from Lactobacillus acidophilus. Put plainly: Peptide-HRP Affigel bead detection of Lactobacillus protease. In kind it is biochemical. The settings on record: FIG. 12. As to the method: The two putative peptides were synthesized, coupled to Affigel beads (Bio-Rad, Hercules Calif.), and then labeled with horseradish peroxidase in the following manner:
Peptides were coupled to Affigel beads as described by the manufacturer. Similar results were obtained using small latex beads with carboxylic acid groups. Briefly, 1 mg of peptide was incubated with 1 ml of affigel in conjugation buffer (phosphate buffered saline) for 1-2 hours at room temperature. For the small latex beads functionalized with carboxylic acids, the peptides/proteins are coupled with EDC (1-ethyl-3-[3 dimethylaminopropyl] carbodiimide hydrochloride). The beads are either used immediately or conjugated further with HRP-maleimide or stored at 4° C. under a cushion of 2% trehalose or 2% sucrose.
HRP is conjugated to sulfo-SMCC though a reactive primary amine group. The reaction is performed for 1 hour in the presence of 50 mM sodium phosphate buffer (pH 7.4). The functionalized HRP is removed from the unbound sulfo-SMCC by gel filtration using P6 Biogel P polyacrylamide beads, Biorad (Hercules, Calif.) or Sephadex G50 beads (Amersham Biosciences, Piscataway, N.J.). The HRP-maleimide elutes in the void volume, whereas the free sulfo-SMCC elutes very slowly from the column. The HRP binds hemin, and, thus, has a brown color that can be used to quickly identify the void volume containing the HRP-maleimide. […]

The subject of test [2] is Staphylococcus aureus, Streptococcus pyogenes, Escherichia coli (E. coli), Pseudomonas aeruginosa, and Enterococcus faecalis. Kind of test: HRP release from GV2-HRP beads, specificity against other common pathogens. In kind it is biochemical. The following applies: five minutes, FIG. 11. As to the method: (§1) Various bacteria were cultured overnight at 37° C. in NYC III media with 5% CO2. A 10% slurry of Affigel-GV2-HRP in PBS was prepared, and 20 μl was added to six wells of a 96-well filter plate (Millipore Multi-screen HTS). Aliquots of the bacteria, including Gardnerella vaginalis, Pseudomonas aeruginosa, E. coli, Streptococcus pyogenes, Enterococcus faecalis, and Staphylococcus aureus, were added (100 μl) to the beads, and the plate was allowed to sit for 5 minutes at ambient temperature. The supernatants were centrifuged into a low-binding assay plate (Coming 3641), and assays for HRP were then run. 2,2′-azino-bis(3-ethylbenzthiazoline-6-sulfonic acid) (ABTS, US Biological) is a commonly used substrate for HRP, giving a water-soluble blue-green color in the presence of HRP and hydrogen peroxide. […]
(§2) FIG. 11 illustrates the specificity of the GV2 (PFINETYAKFC) (SEQ ID NO: 1) peptide for Gardnerella vaginalis over the course of five minutes when incubated with Gardnerella vaginalis, Staphylococcus aureus, Streptococcus pyogenes, Escherichia coli (E. coli), Pseudomonas aeruginosa, and Enterococcus faecalis. The extracts were filtered through microtiter plate filters and the HRP release was measured at 405 nm with ABTS substrate in the presence of hydrogen peroxide (H202).

Test [3] deals with Gardnerella vaginalis. Kind of test: HRP release from Affigel-GV2-HRP beads, ABTS/H2O2 read at 405 nm. In kind it is biochemical. The settings on record: peptide conjugated to HRP on Affigel beads, 5 minutes. As to the method:
as §1, with “run.” for “run. 2,2′-azino-bis(3-ethylbenzthiazoline-6-sulfonic acid) (ABTS, US Biological) is a commonly used substrate for HRP, giving a water-soluble blue-green color in the presence of HRP and hydrogen peroxide.”
Gardnerella vaginalis was detected with the peptide PFINETYAKFC (SEQ ID NO: 1) which was conjugated to HRP. […] Alternatively, the color change can be measured on a plate reader at 405 nm.
as §2

The test system of test [4] is E. coli. The description is as above. The following applies: 5 minutes at ambient temperature. In kind it is biochemical, Escherichia coli. How it is done:
Various bacteria were cultured overnight at 37° C. in NYC III media with 5% CO2. A 10% slurry of Affigel-GV2-HRP in PBS was prepared, and 20 μl was added to six wells of a 96-well filter plate (Millipore Multi-screen HTS). Aliquots of the bacteria, including Gardnerella vaginalis, Pseudomonas aeruginosa, E. coli, Streptococcus pyogenes, Enterococcus faecalis, and Staphylococcus aureus, were added (100 μl) to the beads, and the plate was allowed to sit for 5 minutes at ambient temperature. The supernatants were centrifuged into a low-binding assay plate (Coming 3641), and assays for HRP were then run. 2,2′-azino-bis(3-ethylbenzthiazoline-6-sulfonic acid) (ABTS, US Biological) is a commonly used substrate for HRP, giving a water-soluble blue-green color in the presence of HRP and hydrogen peroxide. The formation of the bluegreen color can be followed at 405 nm, with higher slopes indicating the presence of higher amounts of HRP.

Test [5] has as its system C. albicans. Kind of test: G11 peptide detection of C. albicans grown in artificial vaginal fluid. The class given is biochemical, Candida albicans. The settings on record: FIG. 23.
Test [6] deals with C. albicans. Put plainly: Identification of peptide targets for C. albicans. In kind it is biochemical, Candida albicans. How it is done:
Clones of green fluorescent protein (GFP) tagged conjugates were used to identify targets in a high throughput screen. Each clone contained a plasmid harboring a gene that contains a polyhistidine tag (6 his), 30 random nucleotides (corresponding to 10 random amino acids), and green fluorescent protein (GFP). On the day before a screen, 864 glowing clones are grown up overnight at 37° C. in deep well microtiter plates (1 ml/well). In the morning, the cultures can be induced with 1 mM IPTG for 1 hour, the cells can be centrifuged for five minutes, and then the media can be decanted. Lysozyme (2 mg/ml) can be added and the cells can be flash frozen 3 times. The samples can be treated with 100 ul/well of DNAse I at 37° C. for 30 minutes to reduce the viscosity by digesting the DNA. An aliquot of the sample can then be transferred to a microtiter filter plate containing 10 μl of nickel-NTA resin. The pipeting of the reagents (IPTG, lysozyme, DNAse I, and beads) can be performed with a Tecan Genesis RSP 100 Robot with Gemini version 4.0 software.
The plates can be filtered by centrifugation three times with PBS to remove unbound material and then the GFP-peptide-bound bead can be incubated with microbial extract for 20 min at 37° C. The sample can be filtered and the flow through fluorescence can be compared with the background from the prior wash. If the microbe has a protease that finds the ideal target, then the release of GFP fluorescence from the bead can be over 100 times greater than the background.
(SEQ ID NO: 8), the sequence QKTTIKKLKH (H2) (SEQ ID NO: 9), the sequence KPKAFLKVGN (R8) (SEQ ID NO: 6), the sequence TPIQIHTILH (SEQ ID NO: 10), the sequence […] (SEQ ID NO: 11), the sequence […] (SEQ ID NO: 12), and the sequence […] (SEQ ID NO: 13).

As for “ITTTSSKHEHC (Peptide Substrate of Lactobacillus acidophilus) [peptide substrate detecting a protease from Lactobacillus]”, the “detection of protease from Lactobacillus” value in test [1] is given as “detects an unknown protease; also recorded: detects an unidentified protease”.

In the case of “PFINETYAKFC (also: Affigel bead and HRP conjugate) [GV2]”, the “color change (HRP release, ABTS, 405 nm) with other common pathogens” value in test [2] is recorded as “not in the presence of other common pathogens”. The “HRP release / color change with H2O2 and ABTS substrate” value in test [3] was “quite specific for G. vaginalis; also recorded: turns blue; also recorded: detects unidentified protease from G. vaginalis”; in test [3] (listed as PFINETYAKFC) it was “color change was observed quickly”. The “HRP release signal (ABTS, 405 nm)” value in test [4] is “small amount of signal”.

With “TPIQIHTILH (Peptide Substrate of Candida spp.) [G11]”, the “ability to detect C. albicans” value in test [5] is given as “able to detect C. albicans; also recorded: able to detect Candida albicans”. Besides, in test [6], the “identified as peptide target for C. albicans” value is reported as “peptide targets for C. albicans”.
